According to publication PMC6443832, “Designing and Characterization of a Novel Delivery System for Improved Cellular Uptake by Brain Using Dendronised Apo-E-Derived Peptide” (Frontiers in Bioengineering and Biotechnology, 2019):

Tests used:
bEnd.3 cells [1] = test: Cellular uptake by laser scanning confocal microscopy (LSCM); settings: FITC-labeled; confluent bEnd.3 cells; 1 h treatment; formalin-fixed; LSCM 488 laser; qualitative, versus untreated control cells
Experimental: The bEnd.3 cells were treated at confluence with FITC-labeled products dissolved in DMEM and incubated for 1 h (the appropriate incubation time for dendrons with this type of cell line). The cells were then fixed with 3.7% (v/v) formalin, and analyzed by LSCM (Leica TCS SP5, UK), using a 488-visible laser source.

bEnd.3 cells [2] = test: LDH release cytotoxicity assay; settings: confluent bEnd.3 cells; concentrations up to 400 μM; 24 and 48 h; absorbance 492 nm; relative to complete lysis control (100% lysis); mean of n = 6
Experimental: The bEnd.3 cells were cultured, according to ATCC-product sheet instruction, in DMEM high glucose medium with L-pyruvate, containing 10 % (v/v) fetal bovine serum and 1% (v/v) of 500 U/ml Penicillin/Streptomycin (Gibco, Germany). Cells were seeded at a density of 5 × 10^4 cells per cm^2 in 24-well plates then incubated at 37°C and 5% CO2 and the culture media was replaced every 3 days.
Experiments were performed when cells reached confluence. A range of concentrations (25, 50, 100, 150, 200, 300, and 400 μM) of each AMT-competent G0-, G1-dendron, and RMT-competent AEP-dendron were used in each experiment.
Lactate dehydrogenase (LDH) was measured using Promega CytoTox96® non-radioactive cytotoxicity assay kit (UK) after 24 and 48 h incubation. Absorbance was read spectrophotometrically at 492 nm and converted to a percentage of the total LDH released from the positive control (cells subjected to complete lysis) for 6 replicates.

bEnd.3 cells [3] = test: Cellular uptake by flow cytometry; settings: FITC-labeled carrier in DMEM; confluent bEnd.3 cells; 1 h incubation; flow cytometry FL1-H channel; in comparison to negative control (untreated cells)
Experimental: The bEnd.3 cells were cultured and treated at confluence with 100 μL FITC-labeled products dissolved in DMEM for 1 h. The cells were washed with phosphate buffer solution twice and trypsinised and then harvested to be analyzed using BD C6 sampler flow cytometer (BD Accuri C6, Bioscience, UK). Samples of cells without treatment were also included as a control, and the analysis was carried out through the FL1-H channel for FITC detection.

Molecule | cellular uptake (green fluorescence inside the cells) (bEnd.3 cells [1]) | cell membrane lysis (LDH release) as % of positive control (bEnd.3 cells [2]) | cellular uptake (bEnd.3 cells [3])
O=C1OC2(c3ccc(O)cc3Oc3cc(O)ccc32)c2ccc(N=C=S)cc21 [FITC, fluorescein-5-isothiocyanate, reference compound] | negative results | – | –
NCCCC[C@H](N)C(=O)N[C@@H](Cc1ccccc1)C(N)=O [G0-dendron] | successful cellular uptake | < 10% | 38.7%
H-KLRKLRKRLLR-NH2 (C-terminus assumed) [AEP-dendron] | – | < 10% | 90.7%
